# “Also recorded” adds a separate entry of the source. Where two headings read alike, the source gives them in different places.
# Tests used:
# [1] = system: ΔF508 mutant CFTR Cl- channels; type: cell-based
# [2] = system: uninjected or H2 O-injected oocytes; assay: Two-electrode voltage clamp, uninjected or H2O-injected oocytes (control); type: cell-based, Xenopus laevis; settings: NS004, uninjected or H2O-injected oocytes
# Procedure: Oocytes were surgically removed from Xenopus laevis anesthetized with 0.12% 3-aminobenzoic acid ethyl ester (Tricaine). Oocytes were first rinsed with Ca^2+ -free OR2 medium (82.5 mM NaCl, 1 mM KCl, 1 mM MgCl2, 5 mM HEPES, pH 7.5 with NaOH) followed by incubation in collagenase (1.5 mg/ml prepared in Ca^2+ -free OR2 medium) for 4 hours at room temperature. After enzyme treatment, cells were rinsed 8× with OR2 medium and then rinsed again 8× with ND96 medium (90 mM NaCl, 1 mM KCl, 1 mM CaCl2, 1 mM MgCl2, 5 mM HEPES, pH 7.5 with NaOH). Oocytes were stored overnight at 17° C. Late stage V and early stage VI cells that were visualized to be fully defolliculated to the vitelline envelope were selected for microinjection.
# Electrophysiological evaluation of the effects of putative CFTR openers were assessed in oocytes expressing wild-type and ΔF508 CFTR constructs using standard two-electrode voltage clamp techniques. Generally, a family of currents was generated under control conditions (incubated in Modified Barth's Solution, MBS, a typical physiological saline medium, in the absence of drugs), with no current or small currents generated under drug-free conditions. […] Data were collected and analyzed using a computer equipped with an A/D interface and appropriate acquisition and analysis software.
# wild-type CFTR [3] = molecular target: T1, wild-type CFTR (Homo sapiens, UniProt P13569); assay: Two-electrode voltage clamp, Xenopus oocytes expressing wild-type CFTR; type: cell-based
# T1 sequence (P13569 whole entry): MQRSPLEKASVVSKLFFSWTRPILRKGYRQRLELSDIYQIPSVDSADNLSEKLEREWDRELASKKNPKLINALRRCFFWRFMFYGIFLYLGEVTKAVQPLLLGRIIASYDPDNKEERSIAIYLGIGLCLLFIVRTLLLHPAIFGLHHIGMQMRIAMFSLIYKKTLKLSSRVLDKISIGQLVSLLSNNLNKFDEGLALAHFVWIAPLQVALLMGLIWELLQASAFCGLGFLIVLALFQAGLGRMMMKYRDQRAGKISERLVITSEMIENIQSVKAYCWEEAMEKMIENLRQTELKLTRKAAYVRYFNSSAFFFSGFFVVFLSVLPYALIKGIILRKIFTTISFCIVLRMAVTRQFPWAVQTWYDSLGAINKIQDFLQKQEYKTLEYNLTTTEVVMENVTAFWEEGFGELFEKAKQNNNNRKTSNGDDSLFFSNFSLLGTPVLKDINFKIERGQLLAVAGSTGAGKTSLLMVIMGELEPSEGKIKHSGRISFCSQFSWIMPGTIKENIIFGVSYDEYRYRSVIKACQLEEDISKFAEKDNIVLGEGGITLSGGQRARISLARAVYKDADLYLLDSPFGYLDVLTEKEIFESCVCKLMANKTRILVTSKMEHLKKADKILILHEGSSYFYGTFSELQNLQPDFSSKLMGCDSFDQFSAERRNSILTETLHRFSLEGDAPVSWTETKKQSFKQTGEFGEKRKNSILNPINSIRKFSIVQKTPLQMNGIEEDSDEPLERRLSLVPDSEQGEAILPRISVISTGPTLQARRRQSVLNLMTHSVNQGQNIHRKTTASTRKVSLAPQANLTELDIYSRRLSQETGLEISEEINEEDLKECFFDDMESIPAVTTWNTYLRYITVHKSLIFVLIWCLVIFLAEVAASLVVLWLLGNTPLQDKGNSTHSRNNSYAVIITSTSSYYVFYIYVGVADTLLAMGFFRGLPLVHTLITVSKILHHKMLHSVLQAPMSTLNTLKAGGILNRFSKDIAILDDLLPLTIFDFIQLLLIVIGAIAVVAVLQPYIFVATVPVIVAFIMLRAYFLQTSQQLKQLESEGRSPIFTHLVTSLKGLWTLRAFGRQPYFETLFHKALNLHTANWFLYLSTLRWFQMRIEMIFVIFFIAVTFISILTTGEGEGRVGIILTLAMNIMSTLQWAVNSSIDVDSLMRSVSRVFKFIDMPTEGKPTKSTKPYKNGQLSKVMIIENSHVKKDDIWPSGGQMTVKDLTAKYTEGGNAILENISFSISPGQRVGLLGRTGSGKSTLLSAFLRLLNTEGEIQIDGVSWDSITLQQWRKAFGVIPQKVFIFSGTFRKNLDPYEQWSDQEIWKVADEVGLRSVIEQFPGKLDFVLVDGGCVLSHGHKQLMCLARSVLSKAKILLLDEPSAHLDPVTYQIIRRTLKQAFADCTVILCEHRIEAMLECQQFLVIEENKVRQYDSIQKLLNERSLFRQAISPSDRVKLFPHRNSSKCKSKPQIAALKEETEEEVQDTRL
# mock transfected cells [4] = system: mock transfected cells
# wild-type CFTR [5] = molecular target: T1, wild-type CFTR; assay: Whole-cell patch clamp, Vero cells expressing wild-type CFTR; type: cell-based
# [6] = system: wild-type CFTR Cl- channels; assay: Outside-out single channel patch clamp, Vero cells expressing wild-type CFTR; type: cell-based; settings: sub-micromolar to micromolar NS004, outside-out excised patches
# ΔF508 CFTR [7] = assay: Two-electrode voltage clamp, Xenopus oocytes expressing ΔF508 CFTR; type: cell-based
# ΔF508 CFTR [8] = assay: Whole-cell patch clamp, Vero cells expressing ΔF508 CFTR; type: cell-based
# [9] = system: Control cells (not expressing CFTR constructs); assay: Outside-out patch clamp, control Vero cells not expressing CFTR constructs; type: cell-based, monkey
# Procedure: Subsequently, various concentrations of NS004 were tested for direct effects on ^125 I efflux in cells expressing wild-type and ΔF508 CFTR constructs, the ability of NS004 to affect the anion efflux stimulated by cAMP (produced by application of Forskolin) was also tested. In addition, both whole-cell and single-channel (outside-out) patch clamp configurations were employed to directly determine the effects of cAMP (produced by addition of Forskolin), NS004, and the combination of cAMP and NS004 on whole-cell and single channel Cl^- currents in infected Vero cells under nominally sodium and potassium-free conditions. In all cases data were collected and analyzed by computer.
# mock transfected cells [10] = assay: Whole-cell patch clamp, mock transfected Vero cells; type: cell-based, monkey
# ΔF508 CFTR [11] = assay: 125I efflux from Vero cells expressing ΔF508 CFTR; type: cell-based
# wild-type CFTR [12] = molecular target: T1, wild-type CFTR; assay: 125I efflux from Vero cells expressing wild-type CFTR; type: cell-based
# chloride channels = settings: cited from earlier work
# [13] = NS004 alone at the flux-experiment concentrations, Vero cells
structure (smiles),measurement,setting,value
"O=c1[nH]c2cc(C(F)(F)F)ccc2n1-c1cc(Cl)ccc1O [NS004, 5-trifluoromethyl-1-(5-chloro-2-hydroxyphenyl)-1,3-dihydro-2H-benzimidazol-2-one]",opening / open probability of single Cl- channels,[1],rapid and reversible direct increase in the opening of these channels; also recorded: potently and directly opened Cl^- channels; also recorded: greatly increased the open probability
same,increase in Cl- current,[2],never seen
same,chloride current of the cAMP-stimulated channel,"wild-type CFTR [3]; NS004 added to cAMP-stimulated wild-type CFTR, oocytes",only a marginal enhancement of chloride current; also recorded: only a small potentiation of cAMP-stimulated current
same,reversibility of the increase in Cl- current,"wild-type CFTR [3]; NS004 alone, Xenopus oocytes, wild-type CFTR",rapidly reversible; also recorded: reversibly open
same,Cl- current,"wild-type CFTR [3]; NS004 applied alone, unstimulated wild-type CFTR, Xenopus oocytes",large increase in Cl^- current; also recorded: great efficacy; also recorded: significant increase in the Cl^- current
same,potency (concentration range) for opening unstimulated wild-type CFTR,wild-type CFTR [3]; Xenopus oocytes,sub-micromolar to micromolar
same,response on 125I efflux,mock transfected cells [4],no response
same,whole cell inward and outward Cl- current,wild-type CFTR [5]; [13],large to moderate increases; also recorded: significant increase in the Cl^- current
same,whole cell Cl- current relative to cAMP alone,"wild-type CFTR [5]; combination of cAMP stimulation and NS004, Vero cells",only marginal increases in current; also recorded: only a small potentiation of cAMP-stimulated current
same,opening / open probability of single Cl- channels,[6],potently and directly opened Cl^- channels; also recorded: greatly increased the open probability
same,chloride current,"ΔF508 CFTR [7]; NS004 applied alone, oocytes expressing ΔF508 CFTR",only a small enhancement of chloride current; also recorded: smaller direct increase in whole cell Cl^- current
same,level of cAMP stimulation of channel activity (Cl- current),"ΔF508 CFTR [7]; NS004 simultaneously applied with cAMP and related agents, oocytes expressing ΔF508",greatly exacerbated the level of cAMP stimulation of channel activity; also recorded: profound potentiation of cAMP stimulation of Cl^- current
same,time course of cAMP-stimulated chloride current increase,"ΔF508 CFTR [7]; both cAMP and NS004 present, oocytes expressing ΔF508",greatly reduced (response time enhanced)
same,whole cell inward and outward Cl- current,ΔF508 CFTR [8]; [13],large to moderate increases; also recorded: smaller direct increase in whole cell Cl^- current
same,maximal stimulation of Cl- current by cAMP,"ΔF508 CFTR [8]; cAMP plus NS004, Vero cells",potently potentiated the maximal stimulation of Cl^- current by cAMP; also recorded: profound potentiation of cAMP stimulation of Cl^- current
same,response time to peak of cAMP-stimulated Cl- current,"ΔF508 CFTR [8]; cAMP plus NS004, Vero cells",greatly enhanced the response time to peak
same,channel response to drug application,[9],did not respond to drug application
same,effect on whole cell Cl- current,mock transfected cells [10],no effects
same,time course of the increase in anion flux produced by cAMP,"ΔF508 CFTR [11]; cAMP plus NS004, Vero cells, ΔF508 CFTR",reduced the slow time course
same,levels of 125I efflux attained,"ΔF508 CFTR [11]; co-administration of cAMP and NS004, ΔF508 CFTR, compared with cAMP in wild-type CFTR cells",comparable to the efflux stimulated by cAMP in cells expressing wild-type CFTR
same,amplitude of the increase in 125I efflux produced by cAMP,"ΔF508 CFTR [11]; coapplication of cAMP (Forskolin, 5 μM in FIG. 2) and NS004, Vero cells, ΔF508 CFTR",greatly potentiated; also recorded: greatly enhanced the amplitude; also recorded: robust potentiation of ^125 I efflux
same,125I-flux,"ΔF508 CFTR [11]; direct application of NS004 alone, Vero cells, ΔF508 CFTR",only marginally effected; also recorded: only modest direct increases in ^125 I efflux
same,125I efflux relative to control,"wild-type CFTR [12]; NS004 20 μM alone, Vero cells expressing CFTR (FIG. 2)",increased relative to control
same,125I-flux over control values,"wild-type CFTR [12]; NS004 alone, 0.1-20 micromolar concentration range, Vero cells, wild-type CFTR",increased modestly over control values; also recorded: only modest direct increases in ^125 I efflux
same,total anion flux,"wild-type CFTR [12]; both cAMP and NS004, Vero cells, wild-type CFTR",did not significantly increase total anion flux
"C1CCN2C[C@@H]3C[C@@H](CN4CCCC[C@@H]34)[C@H]2C1 [sparteine, dodecahydro-7,14-methano-2H,6H-di-pyrido[1,2-a;1',2'-e][1,5]diazocine]",effect on chloride channels,chloride channels; higher doses,blocking chloride channels
same,effect on chloride channels,chloride channels; low doses,activating chloride channels

# Reference: US5621007A, “Method for regulation of transmembrane chloride conductance” (Bristol-Myers Squibb Company, priority 1995, dated 1997)
